Test results as given in publication PMC8942775, “Lipidated Calcitonin Gene-Related Peptide (CGRP) Peptide Antagonists Retain CGRP Receptor Activity and Attenuate CGRP Action In Vivo” (Frontiers in Pharmacology, 2022).
Values belong to the compound of their own block, whether it stands above or below them. Ends that are not written are not given here. Peptide text beside a SMILES is read from it. * marks the point of attachment. Ethyl(2-palmitoyloxy) = CCCCCCCCCCCCCCCC(=O)OCC*

Key:
[1] = Solubility limit of the dosing solution; format: physicochemical; conditions: dosing vehicle 0.9% saline with 0.1% BSA and 3.2% DMSO; limited the maximum dose to 320 nmol/kg (10 ml/kg)
Description: Experimental design is outlined in Figure 1. Male and female C57BL/6J mice were recruited at 10–12 weeks of age at 20–30 g bodyweight. Animals were randomly allocated to each treatment group. Antagonists were diluted from respective stock solutions into 37°C pre-warmed sterile 0.9% saline containing 0.1% BSA and DMSO at a final amount of 3.2%. The vehicle was 0.9% saline supplemented with 0.1% BSA and 3.2% DMSO. Antagonist or vehicle was administered subcutaneously at a volume of 10 ml/kg. The anesthetic was: ketamine at 10 mg/ml and xylazine at 1 mg/ml, dissolved in sterile 0.9% saline. This was administered via the intraperitoneal route at 10 ml/kg and the anesthetized mouse placed onto a heating pad to maintain constant body temperature. The head was positioned for the dorsal region of both ears to be aligned to the LDI2-HIR Laser Doppler Imager (Moor Instruments) above it. The imager scanned 40 cm from the ear at a scan speed of 4 ms/pixel, with a scan area of approximately 11.0 cm × 4.1 cm and 256 × 45 pixels resolution. This provided a scan rate of approximately 1 scan/min for both ears. Both ears were simultaneously scanned for 3 min to generate the baseline blood flow prior to capsaicin-challenge (Figure 1). […]

[2] = test system: endogenous CGRP action (capsaicin-induced dermal vasodilation); experiment: Capsaicin-induced dermal vasodilation (CIDV), laser Doppler imaging of the mouse ear; format: in vivo, C57BL/6J mice; conditions: for effect on CIDV response (antagonist screening): male and female C57BL/6J mice, single s.c. dose 10 min before anesthesia, αCGRP8-37 960 nmol/kg, olcegepant 1150 nmol/kg, K24C-palmitate 320 nmol/kg, capsaicin 60 μg/ear, flux AUC over 15 min vs saline, four to five mice per group; for effect on CIDV response at lower (mass-matched) dose: s.c., flux AUC over 15 min vs matched vehicle group, compared to V8C-palmitate and K24C-palmitate, 4-7 per group
Description: Experimental design is outlined in Figure 1. Male and female C57BL/6J mice were recruited at 10–12 weeks of age at 20–30 g bodyweight. Animals were randomly allocated to each treatment group. Antagonists were diluted from respective stock solutions into 37°C pre-warmed sterile 0.9% saline containing 0.1% BSA and DMSO at a final amount of 3.2%. The vehicle was 0.9% saline supplemented with 0.1% BSA and 3.2% DMSO. Antagonist or vehicle was administered subcutaneously at a volume of 10 ml/kg. The anesthetic was: ketamine at 10 mg/ml and xylazine at 1 mg/ml, dissolved in sterile 0.9% saline. This was administered via the intraperitoneal route at 10 ml/kg and the anesthetized mouse placed onto a heating pad to maintain constant body temperature. The head was positioned for the dorsal region of both ears to be aligned to the LDI2-HIR Laser Doppler Imager (Moor Instruments) above it. The imager scanned 40 cm from the ear at a scan speed of 4 ms/pixel, with a scan area of approximately 11.0 cm × 4.1 cm and 256 × 45 pixels resolution. This provided a scan rate of approximately 1 scan/min for both ears. Both ears were simultaneously scanned for 3 min to generate the baseline blood flow prior to capsaicin-challenge (Figure 1). Guided by earlier research ([Grant et al., 2002]), capsaicin (Sigma-Aldrich, St. Louis, MO, United States) dissolved in absolute ethanol was applied topically to the ear (60 μg/ear; 10 μl on both dorsal and ventral side). On the contralateral ear, ethanol was applied as a negative control. Both ears were then immediately scanned with the Laser Doppler imager for a continuous 15-min period to capture changes in blood flow (Figure 1).
Mice were administered subcutaneously with vehicle or antagonist (Figure 1A). Ten minutes later mice were anesthetized and placed on a heating pad. Ten minutes after anesthesia induction, measurement of dermal blood-flow commenced. Either a single dose of antagonist as specified in the figures was used or a dose-ranging study was conducted. For the dose-ranging study, either hαCGRP8-37 or hαCGRP8-37 V8C-palmitate (V8C-palmitate) at a dose of 320, 960 or 3,200 nmol/kg was used. Doses were selected based on existing literature and our own pilot trials to characterize optimal (and maximal/minimal) effective dose within the bounds of solubility limits ([Saxen et al., 1994]; [Grant et al., 2002]; [Gohin et al., 2015]; [Aubdool et al., 2016]).
Mice were administered subcutaneously with vehicle or either hαCGRP8-37 (960 nmol/kg) or V8C-palmitate (960 nmol/kg) at 10, 20, 30 or 60 min prior to anesthesia and baseline read (Figure 1A). Ten minutes after anesthesia induction, measurement of dermal blood-flow began. To study the time of onset of antagonist activity, a shorter period between treatment administration and capsaicin challenge was utilized (T0) (Figure 1B). Here, mice were anesthetized and placed on the heating pad prior to peptide administration. Immediately after peptide administration, measurement of dermal blood-flow began.
For laser doppler imaging (LDI) scans, mean flux values of the whole scanned ear region for both ethanol (control) and capsaicin-treated ears at each time point (per minute) were analyzed using the MoorLDI Review 6.1 software. Mean flux values were normalized to the mean flux values averaged from the three continuous baseline scans and a time course is generated. Area under the curve (AUC) of the % flux mean after capsaicin application (t ≥ 0) was measured for each animal, grouped and compared between different ears or treatment arms. […] Time courses and time points were compared using repeated measures two-way ANOVA with Bonferonni’s multiple comparisons test.

[3] = molecular target: T1, human CGRP receptor (CLR:RAMP1) (Homo sapiens, UniProt O60894+Q16602); experiment: cAMP assay, antagonism of αCGRP at the human CGRP receptor in transfected Cos-7 cells; format: cell-based; conditions: for pA2, CGRPr: non-lipidated analogues, single antagonist concentration 30 nM, agonist αCGRP, mean ± SEM of three independent experiments, SEM; for fold less potent compared to αCGRP8-37 at the CGRP receptor: from pA2 values at 30 nM
T1 construct: HA; myc; expressed in transfected cells; host or cells: Cos-7
Description: (§1) Data were analyzed using GraphPad Prism versions 7–9 (GraphPad Software Inc., San Diego, CA, Unite States). Concentration-response cAMP data were fitted via non-linear regression using a four-parameter logistic equation. An extra sum-of-squares F-test was conducted to determine whether the Hill slope was equal to one. […] The maximal (Emax) and minimal (Emin) responses were not constrained between independent experiments to obtain the pEC50 value.
(§2) The Schild slope was also constrained to one.

[4] = molecular target: T2, human AMY1 receptor (CTR/RAMP1) (Homo sapiens, UniProt O60894+P30988); experiment: cAMP assay, antagonism of αCGRP at the human AMY1 receptor in transfected Cos-7 cells; format: cell-based; conditions: for pA2, AMY1r: non-lipidated analogues, single antagonist concentration 30 nM, agonist αCGRP, mean ± SEM of three independent experiments, SEM
T2 construct: HA; myc; expressed in transfected cells; host or cells: Cos-7
Description: as §1, §2

T2 sequence (P30988 25-474): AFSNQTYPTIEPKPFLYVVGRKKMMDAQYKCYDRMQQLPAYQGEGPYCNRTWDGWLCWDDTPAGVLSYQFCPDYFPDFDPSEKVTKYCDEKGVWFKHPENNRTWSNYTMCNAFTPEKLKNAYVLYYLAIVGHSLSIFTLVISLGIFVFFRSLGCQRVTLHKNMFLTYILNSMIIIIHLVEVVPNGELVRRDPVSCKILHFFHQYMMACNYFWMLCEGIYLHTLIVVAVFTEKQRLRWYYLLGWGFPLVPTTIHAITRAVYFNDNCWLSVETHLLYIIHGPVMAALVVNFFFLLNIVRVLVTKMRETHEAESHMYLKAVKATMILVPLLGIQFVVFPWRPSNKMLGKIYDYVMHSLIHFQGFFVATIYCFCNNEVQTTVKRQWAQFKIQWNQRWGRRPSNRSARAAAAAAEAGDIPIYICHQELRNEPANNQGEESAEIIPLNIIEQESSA
T2 sequence (O60894 27-148): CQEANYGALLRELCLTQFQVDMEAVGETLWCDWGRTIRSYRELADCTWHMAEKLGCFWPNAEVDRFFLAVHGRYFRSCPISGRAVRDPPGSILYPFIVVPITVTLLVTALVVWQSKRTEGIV
T1 sequence (Q16602 23-461): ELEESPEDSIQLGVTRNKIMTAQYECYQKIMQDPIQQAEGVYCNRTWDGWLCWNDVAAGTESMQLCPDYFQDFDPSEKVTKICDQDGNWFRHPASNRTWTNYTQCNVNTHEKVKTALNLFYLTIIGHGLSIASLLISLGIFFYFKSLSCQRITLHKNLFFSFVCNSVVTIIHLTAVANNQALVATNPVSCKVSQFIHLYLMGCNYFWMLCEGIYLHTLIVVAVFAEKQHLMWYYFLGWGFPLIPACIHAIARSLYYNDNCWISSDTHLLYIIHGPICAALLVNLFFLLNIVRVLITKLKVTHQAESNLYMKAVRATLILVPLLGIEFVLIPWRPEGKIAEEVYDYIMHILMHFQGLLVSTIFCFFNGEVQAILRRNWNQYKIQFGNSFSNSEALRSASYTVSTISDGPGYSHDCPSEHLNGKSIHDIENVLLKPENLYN
T1 sequence (O60894 27-148): as the sequence (O60894 27-148) above

Compound: CCCCCCCCCCCCCCCC(=O)OCCSC[C@H](NC(=O)[C@@H](NC(=O)[C@@H](NC(=O)CNC(=O)CNC(=O)[C@H](CO)NC(=O)[C@H](CCCNC(=N)N)NC(=O)[C@H](CO)NC(=O)[C@H](CC(C)C)NC(=O)[C@H](CC(C)C)NC(=O)CNC(=O)[C@H](C)NC(=O)[C@H](CC(C)C)NC(=O)[C@H](CCCNC(=N)N)NC(=O)[C@H](Cc1c[nH]cn1)NC(=O)[C@@H](NC(=O)[C@@H](N)C(C)C)[C@@H](C)O)C(C)C)C(C)C)C(=O)N[C@@H](CC(N)=O)C(=O)N[C@@H](CC(N)=O)C(=O)N[C@@H](Cc1ccccc1)C(=O)N[C@H](C(=O)N1CCC[C@H]1C(=O)N[C@H](C(=O)N[C@@H](CC(N)=O)C(=O)N[C@H](C(=O)NCC(=O)N[C@@H](CO)C(=O)N[C@@H](CCCCN)C(=O)N[C@@H](C)C(=O)N[C@@H](Cc1ccccc1)C(N)=O)C(C)C)[C@@H](C)O)C(C)C [K24C-palmitate] (H-VTHRLAGLLSRSGGVVC(Ethyl(2-palmitoyloxy))NNFVPTNVGSKAF-NH2; N-terminus assumed)
- solubility [1]: limited solubility at high concentrations
- effect on CIDV response (antagonist screening) [2]: attenuated the CIDV response

Compound: CCCCCCCCCCCCCCCC(=O)OCCSC[C@H](N)C(=O)N[C@H](C(=O)N[C@@H](Cc1c[nH]cn1)C(=O)N[C@@H](CCCNC(=N)N)C(=O)N[C@@H](CC(C)C)C(=O)N[C@@H](C)C(=O)NCC(=O)N[C@@H](CC(C)C)C(=O)N[C@@H](CC(C)C)C(=O)N[C@@H](CO)C(=O)N[C@@H](CCCNC(=N)N)C(=O)N[C@@H](CO)C(=O)NCC(=O)NCC(=O)N[C@H](C(=O)N[C@H](C(=O)N[C@@H](CCCCN)C(=O)N[C@@H](CC(N)=O)C(=O)N[C@@H](CC(N)=O)C(=O)N[C@@H](Cc1ccccc1)C(=O)N[C@H](C(=O)N1CCC[C@H]1C(=O)N[C@H](C(=O)N[C@@H](CC(N)=O)C(=O)N[C@H](C(=O)NCC(=O)N[C@@H](CO)C(=O)N[C@@H](CCCCN)C(=O)N[C@@H](C)C(=O)N[C@@H](Cc1ccccc1)C(N)=O)C(C)C)[C@@H](C)O)C(C)C)C(C)C)C(C)C)[C@@H](C)O [V8C-palmitate]
- effect on CIDV response (antagonist screening) [2]: attenuated the CIDV response
- effect on CIDV, dose ranging, 320 nmol/kg ([2]; male mice, 320 nmol/kg s.c. 10 min before anesthesia, six mice per group): did not have a significant antagonist effect
- effect on CIDV, dose ranging, 960 nmol/kg ([2]; male mice, 960 nmol/kg s.c. 10 min before anesthesia, six mice per group): significantly reduced CIDV
- effect on CIDV, dose-duration study, T-10 ([2]; male mice, 960 nmol/kg s.c. 10 min prior to anesthesia and capsaicin application, six mice per group): attenuation evident only at T-10
- effect on CIDV, dose-duration study, T-60 ([2]; male mice, 960 nmol/kg s.c. 60 min prior to anesthesia and capsaicin application, six mice per group): disappearing by the T-60 timepoint
- effect on CIDV, dose ranging, 3,200 nmol/kg ([2]; male mice, 3,200 nmol/kg s.c. 10 min before anesthesia, six mice per group): significant antagonist effect

Compound: NCCCC[C@H](NC(=O)[C@@H](Cc1cc(Br)c(O)c(Br)c1)NC(=O)N1CCC(N2Cc3ccccc3NC2=O)CC1)C(=O)N1CCN(c2ccncc2)CC1 [olcegepant, reference compound]
- effect on CIDV response (antagonist screening) [2]: attenuated the CIDV response

Compound: CCCCCCCCCCCCCCCC(=O)OCCSC[C@H](N)C(=O)N[C@H](C(=O)N[C@H](C(=O)N[C@@H](Cc1c[nH]cn1)C(=O)N[C@@H](CCCNC(=N)N)C(=O)N[C@@H](CC(C)C)C(=O)N[C@@H](C)C(=O)NCC(=O)N[C@@H](CC(C)C)C(=O)N[C@@H](CC(C)C)C(=O)N[C@@H](CO)C(=O)N[C@@H](CCCNC(=N)N)C(=O)N[C@@H](CO)C(=O)NCC(=O)NCC(=O)N[C@H](C(=O)N[C@H](C(=O)N[C@@H](CCCCN)C(=O)N[C@@H](CC(N)=O)C(=O)N[C@@H](CC(N)=O)C(=O)N[C@@H](Cc1ccccc1)C(=O)N[C@H](C(=O)N1CCC[C@H]1C(=O)N[C@H](C(=O)N[C@@H](CC(N)=O)C(=O)N[C@H](C(=O)NCC(=O)N[C@@H](CO)C(=O)N[C@@H](CCCCN)C(=O)N[C@@H](C)C(=O)N[C@@H](Cc1ccccc1)C(N)=O)C(C)C)[C@@H](C)O)C(C)C)C(C)C)C(C)C)[C@@H](C)O)C(C)C [αCGRP7-37-palmitate]
- effect on CIDV response at lower (mass-matched) dose ([2]; male mice): weaker antagonist activities

Compound: K24C αCGRP8-37: cysteine-substituted αCGRP8-37 analogue at Lys-24 (VTHRLAGLLSRSGGVVCNNFVPTNVGSKAF-NH2; ends and bridges not checked; UniProt P06881 90-119, looked up, variant K24C)
- pA2, CGRPr [3]: 8.25 ± 0.11
- pA2, AMY1r [4]: 7.06 ± 0.15

Compound: βCGRP8-37: human βCGRP fragment 8-37, synthesized in house
- effect on CIDV response at lower (mass-matched) dose ([2]; male mice): weaker antagonist activities

Next, values leading:

- fold reduction of antagonist activity compared to hαCGRP8-37 at CGRP receptor ([3]; from pKB values): ~70 fold
- fold reduction of antagonist activity compared to hαCGRP8-37 at AMY1 receptor ([4]; from pKB values): ~12 fold
Compound: CCCCCCCCCCCCCCCC(=O)OCCSC[C@H](NC(=O)[C@H](CO)NC(=O)CNC(=O)[C@@H](NC(=O)[C@H](CC(N)=O)NC(=O)[C@@H](NC(=O)[C@@H]1CCCN1C(=O)[C@@H](NC(=O)[C@H](Cc1ccccc1)NC(=O)[C@H](CC(N)=O)NC(=O)[C@H](CC(N)=O)NC(=O)[C@H](CCCCN)NC(=O)[C@@H](NC(=O)[C@@H](NC(=O)CNC(=O)CNC(=O)[C@H](CO)NC(=O)[C@H](CCCNC(=N)N)NC(=O)[C@H](CO)NC(=O)[C@H](CC(C)C)NC(=O)[C@H](CC(C)C)NC(=O)CNC(=O)[C@H](C)NC(=O)[C@H](CC(C)C)NC(=O)[C@H](CCCNC(=N)N)NC(=O)[C@H](Cc1c[nH]cn1)NC(=O)[C@@H](NC(=O)[C@@H](N)C(C)C)[C@@H](C)O)C(C)C)C(C)C)C(C)C)[C@@H](C)O)C(C)C)C(=O)N[C@@H](C)C(=O)N[C@@H](Cc1ccccc1)C(N)=O [K35C-palmitate]

- pA2, CGRPr [3]: 8.85 ± 0.31
- pA2, AMY1r [4]: 7.04 ± 0.18
Compound: K35C αCGRP8-37: cysteine-substituted αCGRP8-37 analogue at Lys-35

- fold less potent compared to αCGRP8-37 at the CGRP receptor [3]: 25 fold
- pA2, CGRPr [3]: 7.23 ± 0.07
- pA2, AMY1r [4]: 6.41 ± 0.15
Compound: V8C αCGRP8-37: cysteine-substituted αCGRP8-37 analogue at Val-8 (CTHRLAGLLSRSGGVVKNNFVPTNVGSKAF-NH2; ends and bridges not checked; UniProt P06881 90-119, looked up, variant V8C)

- fold less potent compared to αCGRP8-37 at the CGRP receptor [3]: 4.5 fold
- pA2, CGRPr [3]: 7.98 ± 0.09
- pA2, AMY1r [4]: 7.10 ± 0.17
Compound: αCGRP7-37: truncated peptide antagonist which retains the native Cys-7 residue (CVTHRLAGLLSRSGGVVKNNFVPTNVGSKAF; ends and bridges not checked; UniProt P06881 89-119, looked up, fragment)
